{
  "source": "patent US20100298234A1",
  "about": "“Cancer therapeutic agents comprising a ligand for the neuromedin u receptor 2 (fm4) molecule as an active ingredient” (priority 2006, published 2010)",
  "key": {"FM4 [1]": {"target": "T1, FM4 (Homo sapiens, UniProt Q9GZQ4, A395T/C204F)", "T1 construct": "using Pyrobest Taq polymerase (Takara) to clone the full-length FM4 gene; expressed in transfected cells", "T1 sequence (Q9GZQ4 whole entry C204F/A395T)": "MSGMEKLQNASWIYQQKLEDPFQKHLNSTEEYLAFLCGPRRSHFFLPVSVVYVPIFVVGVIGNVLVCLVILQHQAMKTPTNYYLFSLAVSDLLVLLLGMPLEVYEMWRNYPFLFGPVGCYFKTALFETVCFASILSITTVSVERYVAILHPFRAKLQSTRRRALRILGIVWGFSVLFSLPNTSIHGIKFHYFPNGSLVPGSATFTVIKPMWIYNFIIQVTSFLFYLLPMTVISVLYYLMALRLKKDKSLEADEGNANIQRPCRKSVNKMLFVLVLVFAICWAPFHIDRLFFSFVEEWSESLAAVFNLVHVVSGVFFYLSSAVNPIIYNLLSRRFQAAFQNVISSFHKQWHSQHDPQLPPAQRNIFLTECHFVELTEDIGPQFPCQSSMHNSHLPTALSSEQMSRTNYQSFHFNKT", "assay": "Intracellular Ca2+ concentration measurement (Fluo 4 AM) in FM4-expressing CHO cells", "format": "cell-based", "settings": "FM4-CHO cell line, 2.5 μM NmU, FIG. 3", "procedure": "15 μg of linearized FM4 expression vector (pMCN-FM4) obtained by digestion with PvuI was introduced into CHO cells by electroporation (Gene Pulser; BioRad) at 1.5 kV, 25 μFD. The cells were cultured in a medium containing 500 μg/mL of G418, and G418-resistant cells were picked. NmU was added to these cells, and cell lines that reacted to NmU were selected using the increase in intracellular Ca^2+ concentration as an index.\n(§1) The cells were detached using trypsin, plated onto a 96-well plate (black plate for fluorescence measurement) at 2×10^4 cells/well, and after culturing overnight, they were used for intracellular calcium measurements. Measurement of the intracellular calcium concentration was performed as follows.\nAfter removing the medium, an Fluo 4 AM solution [2% FCS, 3 μM Fluo 4 AM (Molecular PROBES) in assay buffer (2 mM HEPES, 1.5 mM probenecid in HBSS)] was added at 50 μL/well. After incubation in the dark at 37° C. for 30 minutes, the cells were washed three times in the assay buffer. Then, an assay buffer that contains 2.5 μM of NmU (Funakoshi) was added, and the intracellular Ca^2+-dependent fluorescence trace at 490-nm excitation was monitored on a plate reader for fluorimetric analysis (Fusion; Perkin Elmer)."}, "FM4 [2]": {"target": "T1, FM4", "assay": "Intracellular Ca2+ concentration in FM4-expressing PANC1 cells (FM4-PANC1)", "format": "cell-based", "settings": "FM4-PANC1, NmU 1 μM, FIG. 6", "procedure": "as §1\nAfter removing the medium, an Fluo 4 AM solution [2% FCS, 3 μM Fluo 4 AM (Molecular PROBES) in assay buffer (2 mM HEPES, 1.5 mM probenecid in HBSS)] was added at 50 μL/well. After incubation in the dark at 37° C. for 30 minutes, the cells were washed three times in the assay buffer. […]\nIn order to confirm that the NmU signaling is transmitted into the cell in the obtained FM4-expressing PANC1 cells (FM4-PANC1), whether the addition of NmU increased the intracellular Ca^2+ concentration was analyzed. […] This confirmed that in the established FM4-PANC1 cells, NmU stimulation causes the FM4-mediated signaling to be transmitted into the cell."}, "FM4-CHO cells [3]": {"tested_on": "FM4-CHO cells", "assay": "Proliferation-suppressing effect, WST-8 assay, FM4-CHO", "format": "cell-based, Chinese hamster", "settings": "NmU 0.096 μM to 60 μM, 48 hours, FIG. 4A", "procedure": "FM4-CHO cells were plated onto a 96-well plate at 2×10^3 cells/well. On the following day, NmU was added to each well at various concentrations (0.096 μM to 60 μM) and the cells were cultured. 48 Hours later, the number of viable cells were analyzed by WST-8 assay (Cell counting kit-8, Dojindo Laboratories)."}, "PANC-1": {"tested_on": "PANC-1", "assay": "Proliferation of pancreatic cancer cell line PANC-1", "format": "cell-based, human", "settings": "PANC-1, NmU 0.096 μM to 60 μM, 72 hours, FIG. 4B", "procedure": "(§2) On the following day, NmU was added to each well at 0.096 μM to 60 μM. Seventy-two hours later, the number of cells was determined."}, "Capan-1": {"tested_on": "Capan-1", "assay": "Proliferation of pancreatic cancer cell line Capan-1", "format": "cell-based, human", "settings": "Capan-1 (high FM4 gene expression), NmU 0.096 μM to 60 μM, 72 hours, FIG. 4B", "procedure": "as §2"}, "PANC1 cells": {"tested_on": "PANC1 cells", "assay": "Soft agar colony formation assay, parent PANC1 cells", "format": "cell-based, human", "settings": "parent cell line PANC1 that does not express FM4, NmU 1 μM, one month, FIG. 7", "procedure": "(§3) To analyze the effect of NmU on the ability of this cell to form colonies, soft agar colony formation assay was performed. Soft agar colony formation assay was performed as follows.\n(§4) Base agar (0.5% agar, 1×MEM, and 10% FCS) was added to each well of a 6-well plate at 1.5 mL/well, and then 1.5 mL/well (0.5×10^4 cells/well) of PANC1 cells or FM4-PANC1 cells in the presence or absence of NmU (1 μM) in top agar (0.35% agar, 1×MEM, and 10% FCS) was added at to each of the wells. After culturing for one month, the number of colony forming cells in the soft agar was counted under a microscope."}, "FM4-PANC1 cells": {"tested_on": "FM4-PANC1 cells", "assay": "Soft agar colony formation assay, FM4-PANC1 cells", "format": "cell-based, human", "settings": "FM4-PANC1, NmU 1 μM, one month, FIG. 7", "procedure": "as §3, §4"}, "FM4-CHO cells [4]": {"tested_on": "FM4-CHO cells", "assay": "Cell morphology of FM4-CHO cells under a microscope after NmU stimulation", "format": "cell-based, Chinese hamster", "settings": "FM4-CHO stimulated with NmU, in approximately 12 hours, FIG. 8", "from_the_text": "The cell morphology of FM4-CHO cells which were forced to express FM4 was observed under a microscope.\nThis led to the speculation that NmU is involved in signal transduction that regulates cell adhesion and cell movement."}, "CHO cells": {"tested_on": "CHO cells", "assay": "Wound healing assay (cell movement), parent CHO cells", "format": "cell-based, Chinese hamster", "settings": "NmU 5 μM, serum-free medium, 24 hours, FIG. 9", "procedure": "(§5) Next, the effect of NmU on cell movement ability was analyzed by wound healing assay. Parent cell line CHO cells and FM4-CHO cells were grown to confluency in plates, and wounded with a pipette tip to make a fixed clearance between the cells. After washing the cells twice with PBS, the cells were cultured in a serum-free culture medium in the presence or absence of NmU (5 μM). Twenty-four hours later, cells that moved into the clearance between the cells were observed and photographed under a microscope."}, "FM4-CHO cells [5]": {"tested_on": "FM4-CHO cells", "assay": "Wound healing assay (cell movement), FM4-CHO cells", "format": "cell-based, Chinese hamster", "settings": "NmU 5 μM, serum-free medium, 24 hours, FIG. 9", "procedure": "as §5"}, "FM3": {"tested_on": "FM3", "settings": "CHO, HEK-293 and COS-7 cells forced to express FM3; cited from earlier work"}, "FM4 [6]": {"target": "T2, FM4 (Homo sapiens, UniProt Q9GZQ4)", "T2 construct": "host or cells: CHO, HEK-293 and COS-7 cells with forced expression", "T2 sequence (Q9GZQ4 whole entry)": "as the sequence (Q9GZQ4 whole entry C204F/A395T) above, with F204C, T395A counted along it", "settings": "CHO, HEK-293 and COS-7 cells forced to express FM4; cited from earlier work"}, "[7]": {"settings": "administration into the cerebral ventricle; cited from earlier work"}},
  "data": [
    {"substance": "NmU: biologically active peptide, endogenous ligand for FM3 and FM4; polypeptide of SEQ ID NO: 14; NmU (Funakoshi) used in the tests (FRVDEEFQSPFASQSRGYFLFRPRN; listed as Homo sapiens)", "values": [
      {"measurement": "intracellular Ca2+ concentration", "setting": "FM4 [1]", "result": "quickly increased"},
      {"measurement": "intracellular Ca2+ concentration", "setting": "FM4 [2]", "result": "increase of the intracellular Ca^2+ concentration"},
      {"measurement": "proliferation (number of viable cells, WST-8)", "setting": "FM4-CHO cells [3]", "result": "suppressed proliferation of FM4-CHO at low concentration"},
      {"measurement": "proliferation (number of cells)", "setting": "PANC-1", "result": "did not act at all on the proliferation"},
      {"measurement": "proliferation (number of cells)", "setting": "Capan-1", "result": "proliferation-suppressing effect of NmU was observed"},
      {"measurement": "colony forming ability in soft agar", "setting": "PANC1 cells", "result": "did not have any effect"},
      {"measurement": "colony forming ability in soft agar", "setting": "FM4-PANC1 cells", "result": "colony formation-suppressing effect by NmU was confirmed"},
      {"measurement": "cell morphology", "setting": "FM4-CHO cells [4]", "result": "significant morphological alterations of the cells such as disappearance of cell protrusions"},
      {"measurement": "cell movement", "setting": "CHO cells", "result": "did not have any effect"},
      {"measurement": "cell movement", "setting": "FM4-CHO cells [5]", "result": "completely inhibited"},
      {"measurement": "intracellular calcium ion concentration", "setting": "FM3", "result": "induced increase of intracellular calcium ion concentration at the nanomolar level"},
      {"measurement": "intracellular calcium ion concentration", "setting": "FM4 [6]", "result": "induced increase of intracellular calcium ion concentration at the nanomolar level"},
      {"measurement": "food/feed intake", "setting": "[7]", "result": "significant reduction in overnight food intake and starvation-induced feeding"}
    ]}
  ]
}
